Assay results as given in ChEMBL document CHEMBL2434896, “Carbonic anhydrase inhibitors. Synthesis of heterocyclic 4-substituted pyridine-3-sulfonamide derivatives and their inhibition of the human cytosolic isozymes I and II and transmembrane tumor-associated isozymes IX and XII” (Eur J Med Chem, 2013).
The source made the active and inactive calls. No cut-off for these calls is given here.

What was measured:
SNB-75 = assay: Growth inhibition of human SNB75 cells at 10 uM after 48 hrs by sulforhodamine B assay; type: functional
SK-MEL-5 = assay: Growth inhibition of human SK-MEL-5 cells at 10 uM after 48 hrs by sulforhodamine B assay; type: functional; settings: SK-MEL-5, 48 h, read-out: GI
NCI-H226 = assay: Growth inhibition of human NCI-H226 cells at 10 uM after 48 hrs by sulforhodamine B assay; type: functional
MDA-MB-435 = assay: Growth inhibition of human MDA-MB-435 cells at 10 uM after 48 hrs by sulforhodamine B assay; type: functional
OVCAR-8 = assay: Growth inhibition of human OVCAR8 cells at 10 uM after 48 hrs by sulforhodamine B assay; type: functional
IGROV-1 = assay: Growth inhibition of human IGROV1 cells at 10 uM after 48 hrs by sulforhodamine B assay; type: functional; settings: IGROV-1, 48 h, read-out: GI
HCT-116 = assay: Growth inhibition of human HCT116 cells at 10 uM after 48 hrs by sulforhodamine B assay; type: functional
LOX IMVI = assay: Growth inhibition of human LOXIMVI cells at 10 uM after 48 hrs by sulforhodamine B assay; type: functional; settings: read-out: GI
U-251 = assay: Growth inhibition of human U251 cells at 10 uM after 48 hrs by sulforhodamine B assay; type: functional; settings: U-251, 48 h, read-out: GI
SW-620 = assay: Growth inhibition of human SW620 cells at 10 uM after 48 hrs by sulforhodamine B assay; type: functional
MOLT-4 = assay: Growth inhibition of human MOLT4 cells at 10 uM after 48 hrs by sulforhodamine B assay; type: functional; settings: MOLT-4, 48 h, read-out: GI
NCI/ADR-RES = assay: Growth inhibition of human NCI-ADR-RES cells at 10 uM after 48 hrs by sulforhodamine B assay; type: functional
Malme-3M = assay: Growth inhibition of human MALME-3M cells at 10 uM after 48 hrs by sulforhodamine B assay; type: functional; settings: read-out: GI
OVCAR-4 = assay: Growth inhibition of human OVCAR4 cells at 10 uM after 48 hrs by sulforhodamine B assay; type: functional
NCI-H522 = assay: Growth inhibition of human NCI-H522 cells at 10 uM after 48 hrs by sulforhodamine B assay; type: functional
A498 = assay: Growth inhibition of human A498 cells at 10 uM after 48 hrs by sulforhodamine B assay; type: functional
NCI-H322M = assay: Growth inhibition of human NCI-H322M cells at 10 uM after 48 hrs by sulforhodamine B assay; type: functional; settings: read-out: GI
HT-29 = assay: Growth inhibition of human HT-29 cells at 10 uM after 48 hrs by sulforhodamine B assay; type: functional; settings: HT-29, 48 h, read-out: GI
MCF7 = assay: Growth inhibition of human MCF7 cells at 10 uM after 48 hrs by sulforhodamine B assay; type: functional
KM12 = assay: Growth inhibition of human KM12 cells at 10 uM after 48 hrs by sulforhodamine B assay; type: functional
Hs-578T = assay: Growth inhibition of human Hs 578T cells at 10 uM after 48 hrs by sulforhodamine B assay; type: functional
HCT-15 = assay: Growth inhibition of human HCT15 cells at 10 uM after 48 hrs by sulforhodamine B assay; type: functional
ACHN = assay: Growth inhibition of human ACHN cells at 10 uM after 48 hrs by sulforhodamine B assay; type: functional
OVCAR-5 = assay: Growth inhibition of human OVCAR5 cells at 10 uM after 48 hrs by sulforhodamine B assay; type: functional; settings: OVCAR-5, 48 h, read-out: GI
CAKI-1 = assay: Growth inhibition of human CAKI-1 cells at 10 uM after 48 hrs by sulforhodamine B assay; type: functional; settings: CAKI-1, 48 h, read-out: GI
SN12C = assay: Growth inhibition of human SN12C cells at 10 uM after 48 hrs by sulforhodamine B assay; type: functional
SF-539 = assay: Growth inhibition of human SF539 cells at 10 uM after 48 hrs by sulforhodamine B assay; type: functional; settings: SF-539, 48 h, read-out: GI
PC-3 = assay: Growth inhibition of human PC3 cells at 10 uM after 48 hrs by sulforhodamine B assay; type: functional; settings: PC-3, 48 h, read-out: GI
SR = assay: Growth inhibition of human SR cells at 10 uM after 48 hrs by sulforhodamine B assay; type: functional
A549 = assay: Growth inhibition of human A549/ATCC cells at 10 uM after 48 hrs by sulforhodamine B assay; type: functional; settings: A549, 48 h, read-out: GI
RPMI-8226 = assay: Growth inhibition of human RPMI8226 cells at 10 uM after 48 hrs by sulforhodamine B assay; type: functional; settings: RPMI-8226, 48 h, read-out: GI
OVCAR-3 = assay: Growth inhibition of human OVCAR3 cells at 10 uM after 48 hrs by sulforhodamine B assay; type: functional
SK-MEL-28 = assay: Growth inhibition of human SK-MEL-28 cells at 10 uM after 48 hrs by sulforhodamine B assay; type: functional, cell-based
BT-549 = assay: Growth inhibition of human BT549 cells at 10 uM after 48 hrs by sulforhodamine B assay; type: functional
NCI-H23 = assay: Growth inhibition of human NCI-H23 cells at 10 uM after 48 hrs by sulforhodamine B assay; type: functional
UO-31 = assay: Growth inhibition of human UO31 cells at 10 uM after 48 hrs by sulforhodamine B assay; type: functional; settings: UO-31, 48 h, read-out: GI
CCRF-CEM = assay: Growth inhibition of human CCRF-CEM cells at 10 uM after 48 hrs by sulforhodamine B assay; type: functional; settings: read-out: GI
DU-145 = assay: Growth inhibition of human DU145 cells at 10 uM after 48 hrs by sulforhodamine B assay; type: functional
COLO 205 = assay: Growth inhibition of human COLO205 cells at 10 uM after 48 hrs by sulforhodamine B assay; type: functional; settings: COLO 205, 48 h, read-out: GI
HCC 2998 = assay: Growth inhibition of human HCC2998 cells at 10 uM after 48 hrs by sulforhodamine B assay; type: functional
MDA-MB-231 = assay: Growth inhibition of human MDA-MB-231 cells at 10 uM after 48 hrs by sulforhodamine B assay; type: functional
UACC-257 = assay: Growth inhibition of human UACC257 cells at 10 uM after 48 hrs by sulforhodamine B assay; type: functional
T47D = assay: Growth inhibition of human T47D cells at 10 uM after 48 hrs by sulforhodamine B assay; type: functional; settings: read-out: GI
NCI-H460 = assay: Growth inhibition of human NCI-H460 cells at 10 uM after 48 hrs by sulforhodamine B assay; type: functional
TK-10 = assay: Growth inhibition of human TK10 cells at 10 uM after 48 hrs by sulforhodamine B assay; type: functional; settings: TK-10, 48 h, read-out: GI
HL-60(TB) = assay: Growth inhibition of human HL-60(TB) cells at 10 uM after 48 hrs by sulforhodamine B assay; type: functional
[1] = Growth inhibition of human EKVX cells at 10 uM after 48 hrs by sulforhodamine B assay; type: functional; settings: read-out: GI
Carbonic anhydrase 9 = Carbonic anhydrase 9 (Homo sapiens, UniProt Q16790); assay: Inhibition of human carbonic anhydrase 9 after 15 mins by stopped flow CO2 hydration assay
SK-MEL-2 = assay: Growth inhibition of human SK-MEL-2 cells at 10 uM after 48 hrs by sulforhodamine B assay; type: functional
K562 = assay: Growth inhibition of human K562 cells at 10 uM after 48 hrs by sulforhodamine B assay; type: functional
SF-295 = assay: Growth inhibition of human SF295 cells at 10 uM after 48 hrs by sulforhodamine B assay; type: functional; settings: SF-295, 48 h, read-out: GI
SNB-19 = assay: Growth inhibition of human SNB19 cells at 10 uM after 48 hrs by sulforhodamine B assay; type: functional
HOP-62 = assay: Growth inhibition of human HOP62 cells at 10 uM after 48 hrs by sulforhodamine B assay; type: functional
M14 = assay: Growth inhibition of human M14 cells at 10 uM after 48 hrs by sulforhodamine B assay; type: functional
786-0 = assay: Growth inhibition of human 786-0 cells at 10 uM after 48 hrs by sulforhodamine B assay; type: functional
SK-OV-3 = assay: Growth inhibition of human SKOV3 cells at 10 uM after 48 hrs by sulforhodamine B assay; type: functional; settings: SK-OV-3, 48 h, read-out: GI
SF-268 = assay: Growth inhibition of human SF268 cells at 10 uM after 48 hrs by sulforhodamine B assay; type: functional
UACC-62 = assay: Growth inhibition of human UACC62 cells at 10 uM after 48 hrs by sulforhodamine B assay; type: functional

Structure (SMILES): CCCCc1c(C)nn(-c2ccncc2S(N)(=O)=O)c1C
- growth inhibition (GI) (SNB-75): inactive
- inhibition of growth at 10 µM (SK-MEL-5): 16%
- growth inhibition (GI) (NCI-H226): inactive
- growth inhibition (GI) (MDA-MB-435): inactive
- growth inhibition (GI) (OVCAR-8): inactive
- inhibition of growth at 10 µM (IGROV-1): 3%
- growth inhibition (GI) (HCT-116): inactive
- inhibition of growth at 10 µM (LOX IMVI): 2%
- inhibition of growth at 10 µM (U-251): 8%
- growth inhibition (GI) (SW-620): inactive
- inhibition of growth at 10 µM (MOLT-4): 17%
- growth inhibition (GI) (NCI/ADR-RES): inactive
- inhibition of growth at 10 µM (Malme-3M): 13%
- growth inhibition (GI) (OVCAR-4): inactive
- growth inhibition (GI) (NCI-H522): inactive
- growth inhibition (GI) (A498): inactive
- inhibition of growth at 10 µM (NCI-H322M): 7%
- inhibition of growth at 10 µM (HT-29): 15%
- growth inhibition (GI) (MCF7): inactive
- growth inhibition (GI) (KM12): inactive
- growth inhibition (GI) (Hs-578T): inactive
- growth inhibition (GI) (HCT-15): inactive
- growth inhibition (GI) (ACHN): inactive
- inhibition of growth at 10 µM (OVCAR-5): 8%
- inhibition of growth at 10 µM (CAKI-1): 5%
- growth inhibition (GI) (SN12C): inactive
- inhibition of growth at 10 µM (SF-539): 3%
- inhibition of growth at 10 µM (PC-3): 8%
- growth inhibition (GI) (SR): inactive
- inhibition of growth at 10 µM (A549): 17%
- inhibition of growth at 10 µM (RPMI-8226): 27%
- growth inhibition (GI) (OVCAR-3): inactive
- growth inhibition (GI) (SK-MEL-28): inactive
- growth inhibition (GI) (BT-549): inactive
- growth inhibition (GI) (NCI-H23): inactive
- inhibition of growth at 10 µM (UO-31): 23%
- inhibition of growth at 10 µM (CCRF-CEM): 8%
- growth inhibition (GI) (DU-145): inactive
- inhibition of growth at 10 µM (COLO 205): 1%
- growth inhibition (GI) (HCC 2998): inactive
- growth inhibition (GI) (MDA-MB-231): inactive
- growth inhibition (GI) (UACC-257): inactive
- inhibition of growth at 10 µM (T47D): 11%
- growth inhibition (GI) (NCI-H460): inactive
- inhibition of growth at 10 µM (TK-10): 9%
- growth inhibition (GI) (HL-60(TB)): inactive
- inhibition of growth at 10 µM [1]: 6%
- Ki (Carbonic anhydrase 9): 0.0486 µM
- growth inhibition (GI) (SK-MEL-2): inactive
- growth inhibition (GI) (K562): inactive
- inhibition of growth at 10 µM (SF-295): 8%
- growth inhibition (GI) (SNB-19): inactive
- growth inhibition (GI) (HOP-62): inactive
- growth inhibition (GI) (M14): inactive
- growth inhibition (GI) (786-0): inactive
- inhibition of growth at 10 µM (SK-OV-3): 2%
- growth inhibition (GI) (SF-268): inactive
- growth inhibition (GI) (UACC-62): inactive
